Experimental data as given in publication PMC9233675, “Ru(II) photocages enable precise control over enzyme activity with red light” (Nature Communications, 2022).
Where a chain is given by its changes, count along the chain named. “And” between values parts separate entries of the source, which are not always exact repeats. Identical values can stand only once. Like-named read-outs stand apart in the source and are kept apart here.

Legend:
[1] = Cellular viability (resazurin to resorufin, 72 h); assay type: cell-based, human; settings: human, parental HEK293 T-Rex cells, HEK293 T-Rex, after 72 hrs; for viability at 72 h, 1.11 μM: Log Conc 0.045757; for viability at 72 h, 30 μM: Log Conc 1.47712; for viability at 72 h, 0.37 μM: Log Conc -0.43136; for viability at 72 h, 0.123 μM: Log Conc -0.90849; for viability at 72 h, 0.0412 μM: Log Conc -1.38561; for viability at 72 h, 0.0137 μM: Log Conc -1.86273; for viability at 72 h, 3.33 μM: Log Conc 0.522879
Description: (§1) The cells were >70% viable at 72 h with 10 μM compound, as quantified by metabolically active cells determined by the conversion of resazurin to resorufin (Supplementary Figs. 18–20).
(§2) The parental HEK T-Rex cell line was maintained as above, in the absence of Zeocin. Compounds were serially diluted in media, and the cells were dosed from 0–30 μM compound, and then incubated at 37 °C (n = 3). […] The cells were incubated with the compound in the dark for 30 min prior to light exposure, using the same parameters as in the enzyme activity assay, and then treated as above.

HEK293 T-Rex cell line = assay: Cellular viability (resazurin to resorufin, 72 h); assay type: cell-based, human; settings: HEK293 T-Rex, after 72 hrs
Description: as §1, §2

CYP1B1 F134L = target: T1, CYP1B1 F134L (Homo sapiens, UniProt Q16678, F134L); assay: In cell CYP1B1 activity assay, F134L variant; settings: for logSI F134L: log of the ratio of IC50 values mutant vs WT (Fig. 3c)
T1 sequence (Q16678 1-543 F134L): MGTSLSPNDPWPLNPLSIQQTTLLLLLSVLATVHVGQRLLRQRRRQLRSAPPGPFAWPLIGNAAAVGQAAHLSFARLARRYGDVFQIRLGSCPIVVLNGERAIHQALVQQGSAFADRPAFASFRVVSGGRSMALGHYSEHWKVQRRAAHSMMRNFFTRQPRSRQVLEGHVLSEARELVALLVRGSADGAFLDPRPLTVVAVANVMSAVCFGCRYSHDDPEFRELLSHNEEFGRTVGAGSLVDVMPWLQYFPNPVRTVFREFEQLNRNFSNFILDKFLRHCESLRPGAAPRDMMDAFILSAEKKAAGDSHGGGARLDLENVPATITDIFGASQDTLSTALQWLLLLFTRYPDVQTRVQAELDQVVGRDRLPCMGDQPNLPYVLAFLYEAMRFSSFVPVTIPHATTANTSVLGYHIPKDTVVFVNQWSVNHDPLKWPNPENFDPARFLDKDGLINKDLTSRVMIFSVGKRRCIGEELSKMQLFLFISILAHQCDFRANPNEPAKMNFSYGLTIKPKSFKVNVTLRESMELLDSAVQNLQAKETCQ
Source text: (§5) Site directed mutagenesis was used to probe the importance of specific active-site contacts identified through the structural assessment (Fig. 3a, b) and simulations. In all cases, conservative mutations were made to maintain polar or hydrophobic character and approximate size. The aromatic residues that frame the inhibitor binding site, Phe143 and Phe231, were mutated to Leu to determine the importance of the π interactions. In addition, the Ser127 residue, located in the upper corner of the active site on the B-C loop, was chosen for mutation based on the simulations. This amino acid transiently contacts the inhibitors, but also forms a hydrogen bond with Asp326 of the I-helix, and thus may impact the position of this helix with regards to the B-C loop. […] Rather than directly mutating these residues in the I-helix, neighboring residues Gln332 and Asp333 were targeted, with the hope of interrupting amino acid interactions that position the helix within the active site.
(§6) The ratio of IC50 values for the WT vs. the mutant are shown in Fig. 3c and reflects the importance of the specific contact; the log of the value is used to aid in visualization.
(§7) Cell lines were seeded onto Geltrex coated 96-well plates at 40,000 cells/well, and grown overnight in DMEM media containing 1 μg/mL tetracycline. The media was then replaced with Opti-MEM supplemented with 2% FBS and 1 μg/mL tetracycline. Compounds were serially diluted in Opti-MEM supplemented with 2% FBS and 1 μg/mL tetracycline and an equal volume of compound added to the cells (n = 3). Following a 1 h incubation, resorufin ethyl ether (REE; for CYP1B1 and 1A1) or dibenzylfluorescein (DBF; for 19A1) was added to the cells for a total concentration of 5 μM for REE and 1 μM for DBF. […] Dose–response curves were generated in Prism and normalized using the no-compound control (set as 100% activity) and the no-cell control (set as 0% activity; this value in the raw data reflects the background fluorescence of the dye alone).

[2] = system: cytochrome P450 enzymes in pooled human liver microsomes; assay: Inhibition of cytochrome P450 enzymes in pooled human liver microsomes (phLM); assay type: biochemical; settings: human, pooled human liver microsomes, pH 7.8, probe 7-benzoyloxy-4-trifluoromethylcoumarin, 50 µM; Dark; conversion of 7-benzoyloxy-4-trifluoromethylcoumarin
Source text: (§3) Pooled human liver microsomes were used to test the potential impact of the inhibitors on multiple polymorphisms of highly promiscuous, drug metabolizing CYPs[27]. There are more than 10 different CYPs in this preparation, and the use of pooled microsomes ensures that genetic variability in CYPs is represented. […] This is notable, as the liver CYPs have evolved to bind the widest possible variety of molecules.
(§4) Commercial preparations of pooled human liver microsomes come from 50 individuals, providing representation of biologically relevant CYP variants. Compounds were screened for inhibition of cytochrome P450 enzymes in phLMs using a 96-well kinetic assay. […] Compound stocks were diluted in dose–response, and added in 100 mM potassium phosphate buffer pH 7.8 with 50 µM 7-benzoyloxy-4-trifluoromethylcoumarin (Corning, prepared as a 10 mM DMSO stock) and 16 µg of phLMs (XenoTech, prepared as 20 mg protein/mL suspended in 250 mM sucrose) per well (n = 3). The compounds were incubated for 5 min in the absence of light at 25 °C. The 96-well plate was then either protected from light or irradiated with red light for 1 h (660 nm, 58.7 J/cm^2). Enzymatic turnover was initiated upon addition of NADPH (TCI, prepared immediately prior to addition) at a concentration 1.2 mM per well. To determine background fluorescence from the assay, NADPH was omitted from several control wells. The reactions were immediately placed in a SpectraFluor Plus plate reader (Tecan) preheated to 37 °C, and fluorescence measurements taken every 3 min for 120 min with excitation of 435 nm and emission of 525 nm. Fluorescence measurements in the […], and the data was processed with GraphPad Prism 6. The linear portion of the signal for each dose point with respect to time was first fitted to a line to determine the rate. The resulting slope of these lines was then plotted against the logarithmic concentration of the study compound to provide a dose–response curve.

CYP1B1 Q332E = target: T2, CYP1B1 Q332E (Homo sapiens, UniProt Q16678, Q332E); assay: In cell CYP1B1 activity assay, Q332E variant; settings: for logSI Q332E: log of the ratio of IC50 values mutant vs WT (Fig. 3c)
T2 sequence (Q16678 1-543 Q332E): T1 sequence (Q16678 1-543 F134L) with L134F, Q332E
Source text: as §5, §6, §7

[3] = Stability of compounds in rat liver microsomes; settings: for Remaining, % (NCF=60min): rat liver microsomes, no co-factor (no NADPH); for CLint scaled / Remaining, % (T=60min) / half-life / microsomal CLint: rat, liver microsomes
[4] = system: cytochrome P450 enzymes in phLMs; assay: Inhibition of cytochrome P450 enzymes in pooled human liver microsomes (phLM); assay type: biochemical; settings: for enzyme activity pHLM: dark, scale 0–100; for SI (1B1:phLM): ratio of IC50 phLM to CYP1B1, for complexes 4–6 IC50 (light)
Source text: as §3, §4

[5] = Dark, conversion of 7-benzoyloxy-4-trifluoromethylcoumarin, read-out: IC50 phLM Dark
[6] = Light: 660 nm, 58.7 J/cm^2, read-out: IC50 phLM Light

Structure (SMILES)	viability at 72 h, 1.11 μM [1] [%]	viability at 72 h, 30 μM [1] [%]	viability at 72 h, 0.37 μM [1] [%]	viability at 72 h, 0.123 μM [1] [%]	viability at 72 h, 0.0412 μM [1] [%]	viability at 72 h, 0.0137 μM [1] [%]	% Viable (HEK293 T-Rex cell line; Log Conc 0.045757)	% Viable (HEK293 T-Rex cell line; Log Conc 0.522879)	% Viable (HEK293 T-Rex cell line; Log Conc 1)	% Viable (HEK293 T-Rex cell line; Log Conc 1.47712)	% Viable (HEK293 T-Rex cell line; Log Conc -0.43136)	% Viable (HEK293 T-Rex cell line; Log Conc -0.90849)	% Viable (HEK293 T-Rex cell line; Log Conc -1.38561)	% Viable (HEK293 T-Rex cell line; Log Conc -1.86273)	logSI F134L (CYP1B1 F134L)	IC50 [2] [nM]	logSI Q332E (CYP1B1 Q332E)	Remaining, % (NCF=60min) [3] [%]	CLint scaled [3] [mL/min/kg]	SI (1B1:phLM) [4]	also measured
COc1ccc(C=Cc2ccncc2)c(OC)c1 [Compound 3]	96.6	140	92.3	93.3	90.3	103	97.2552% and 97.1817%	116.518% and 106.568% and 128.158%	141.882% and 148.217% and 166.23%	142.875% and 157.603%	103.982% and 85.443%	97.2307% and 93.9713%	97.0469% and 84.1196%	98.309% and 101.936%	1.7	334	2.2	108.6	241		Remaining, % (T=60min) [3]: 1.4%; half-life [3]: 10.4 min; microsomal CLint [3]: 134 µL/min/mg
COc1cc(/C=C/c2ccc(OC)cc2OC)cc(OC)c1 [Compound 1, reference compound]	91.2	68.4	98.9	98.4	97.1	99.3	81.8963% and 90.1938%	71.5944% and 78.1539%	79.5836% and 68.5529%	62.2316% and 63.1567%	95.7862% and 89.6612%	94.8612% and 92.8008%	93.2073% and 97.8887%	106.593% and 96.3469%	1	11000	0.6	63.7			viability at 72 h, 3.33 μM [1]: 76.6%
COc1ccc(/C=C/c2cc[n+]([Ru-4]345([n+]6ccccc6-c6cccc([n+]63)-c3cccc[n+]34)[n+]3c(cc(C(=O)[O-])c4ccccc43)-c3cc(C(=O)[O-])c4ccccc4[n+]35)cc2)c(OC)c1 [Compound 6]																				4300	IC50 [4, 5]: ~30000 nM; IC50 [4, 6]: 1280 nM; enzyme activity pHLM ([4]; Log conc 0.273001): 89.9976; enzyme activity pHLM ([4]; Log conc 0.875061): 84.6565; enzyme activity pHLM ([4]; Log conc 1.47712): 45.9092; enzyme activity pHLM ([4]; Log conc -0.329059): 93.178; enzyme activity pHLM ([4]; Log conc -0.931119): 88.2981; enzyme activity pHLM ([4]; Log conc -1.53318): 91.697; enzyme activity pHLM ([4]; Log conc -2.13524): 93.7121
COc1ccc(/C=C/c2cc[n+]([Ru-4]345([n+]6ccccc6-c6cccc([n+]63)-c3cccc[n+]34)[n+]3c(cc(C(=O)[O-])c4ccccc43)-c3cc(C(=O)[O-])c4ccccc4[n+]35)cn2)c(OC)c1 [Compound 5]																				∼1750	IC50 [4, 5]: > 30000 nM; IC50 [4, 6]: ~30000 nM
COc1ccc(/C=C/c2ccncn2)c(OC)c1 [Compound 2]	97.3	51.9	85.2	89.2	92	93.4	94.5248% and 84.1248%	84.1669% and 88.3577%	69.8564% and 78.2941%	51.1449% and 56.2608%	92.2822% and 92.2261%	98.0989% and 92.2261%	94.0623% and 98.2391%	98.7016% and 97.4401%	0.5	1180	0.7	47.1	369	16	viability at 72 h, 3.33 μM [1]: 79.8%; viability at 72 h, 10 μM ([1]; Log Conc 1): 64.5%; IC50 (CYP1B1 F134L): 240 nM; Ratio IC50 (mutant)/ IC50 (WT), F134L (CYP1B1 F134L): 3; IC50 (CYP1B1 Q332E): 402 nM; Ratio IC50 (mutant)/ IC50 (WT), Q332E (CYP1B1 Q332E): 5.3; Remaining, % (T=60min) [3]: 0.3%; half-life [3]: 6.75 min; microsomal CLint [3]: 205 µL/min/mg
